Laboratory results as given in US12551536B2, “Semaglutide in medical therapy” (Novo Nordisk A/S, priority 2017, dated 2026).

Assay: 52-week clinical trial in obese subjects without diabetes mellitus: gastrointestinal adverse events
Assay type: in vivo, human
Conditions: for Gastrointestinal adverse events, Observed data, % (percentage of subjects with at least one event) / Nausea, % (percentage of subjects experiencing at least one event) / Nausea, E (number of events) / Nausea, Ne (number of subjects experiencing at least one event) / Gastrointestinal adverse events, Observed data, Ne (number of subjects experiencing at least one event): on-treatment; for Nausea, % (percentage of subjects experiencing at least one event) / Nausea, E (number of events) / Nausea, Ne (number of subjects experiencing at least one event): observed data
Protocol: This trial was designed as a 52-week, randomised, double-blind, placebo-controlled, sixteen-armed, parallel group, multi-centre, multinational trial comparing once-daily subcutaneous administration of semaglutide in five different doses (ranging from 0.05 mg/day to 0.4 mg/day) with placebo in obese subjects without diabetes mellitus. […] The trial was double-blinded between active and placebo treatment. To ensure a sufficiently large sample of men, no more than 70% of the trial population was allowed to be women and the randomisation was stratified according to sex. Subjects were randomised in a balanced manner (6:1 active:placebo).
The primary endpoint was relative change from baseline in body weight (%) at 52 weeks. Key secondary endpoints included proportion of subjects with weight loss of ≥5% or ≥10% of baseline body weight at 52 weeks as well as change in body weight from baseline to 52 weeks. Supportive secondary safety endpoints also included gastrointestinal (GI) adverse events (i.e. nausea, vomiting, diarrhoea and constipation). During each site visit the individual subject was asked via open questions if they had experienced any medical problems since the last visit. All medical problems either observed by the site staff or the subject was reported as an adverse event and evaluated for severity and causality by the investigator. For this trial the subjects had site visits every 2 weeks for the first 20 weeks of the trial and afterwards site visits was performed every 4 weeks.
Subjects in all treatment arms including placebo received nutritional counselling and a calorie-reduced diet by a dietician or equivalent qualified delegate as well as physical activity counselling by a qualified person on a monthly basis beginning at the randomisation visit. The trial population consisted of a total of 957 subjects were randomised. A total of 777 subjects (81.2%) completed 52 weeks of treatment; 180 (18.8%) discontinued treatment prematurely with no obvious dose-dependent trend. Key inclusion criteria for this trial were: Male or female, age ≥18 years at the time of signing inform consent; body mass index (BMI)≥30.0 kg/m2 at the screening visit; and at least one unsuccessful weight loss attempt per investigator judgement. Key exclusion criteria for this trial were: A HbA1c≥6.5% at screening or diagnosed with type 1 or type 2 diabetes mellitus; Treatment with glucose lowering agent(s) within 90 days before screening; Screening calcitonin ≥50 ng/L (pg/mL); Personal or family history of medullary thyroid carcinoma or multiple endocrine neoplasia syndrome type 2; History of pancreatitis (acute or chronic); Obesity induced by endocrine disorders (e.g. Cushing Syndrome); Treatment with any medication within 90 days before screening that based on investigator's judgement may cause significant weight change; Previous surgical treatment for obesity (liposuction and/or abdominoplasty performed >1 year before screening is allowed); History of major depressive disorder within 2 years before randomisation; Any lifetime history of a suicidal attempt; and Female who is pregnant, breast-feeding or intends to become pregnant or is of childbearing potential and not using an adequate contraceptive method (adequate contraceptive measures as required by local regulation or practice).

[1] = Sema 0.05 mg once daily s.c., N 103
[2] = Sema 0.1 mg once daily s.c., N 102
[3] = Sema 0.2 mg once daily s.c., N 103
[4] = Sema 0.3 mg once daily s.c., N 103
[5] = Sema 0.4 mg once daily s.c., N 102

## N^6.26-{18-[N-(17-carboxyheptadecanoyl)-L-γ-glutamyl]-10-oxo-3,6,12,15-tetraoxa-9,18-diazaoctadecanoyl}-[8-(2-amino-2-propanoic acid),34-L-arginine]human glucagon-like peptide 1(7-37) [Sema]
Lira 3.0 mg, Emax model, Estimate [95% CI]
  Corresponding Sema dose (dosage of semaglutide providing the same level of gastrointestinal adverse events as 3.0 mg liraglutide): 0.28 mg
Sema 0.05 mg once daily s.c.
  Gastrointestinal adverse events, Observed data, % (percentage of subjects with at least one event): 62.1%
  Nausea, % (percentage of subjects experiencing at least one event): 31.1%
  Nausea, E (number of events): 41
[1]
  Nausea, Ne (number of subjects experiencing at least one event): 32
  Gastrointestinal adverse events, Observed data, Ne (number of subjects experiencing at least one event): 64
Sema 0.1 mg once daily s.c.
  Gastrointestinal adverse events, Observed data, % (percentage of subjects with at least one event): 70.6%
  Nausea, % (percentage of subjects experiencing at least one event): 41.2%
  Nausea, E (number of events): 80
[2]
  Nausea, Ne (number of subjects experiencing at least one event): 42
  Gastrointestinal adverse events, Observed data, Ne (number of subjects experiencing at least one event): 72
Sema 0.2 mg once daily s.c.
  Gastrointestinal adverse events, Observed data, % (percentage of subjects with at least one event): 69.9%
  Nausea, % (percentage of subjects experiencing at least one event): 43.7%
  Nausea, E (number of events): 74
[3]
  Nausea, Ne (number of subjects experiencing at least one event): 45
  Gastrointestinal adverse events, Observed data, Ne (number of subjects experiencing at least one event): 72
Sema 0.3 mg once daily s.c.
  Gastrointestinal adverse events, Observed data, % (percentage of subjects with at least one event): 69.9%
  Nausea, % (percentage of subjects experiencing at least one event): 41.7%
  Nausea, E (number of events): 69
[4]
  Nausea, Ne (number of subjects experiencing at least one event): 43
  Gastrointestinal adverse events, Observed data, Ne (number of subjects experiencing at least one event): 72
Sema 0.4 mg once daily s.c.
  Gastrointestinal adverse events, Observed data, % (percentage of subjects with at least one event): 82.4%
  Nausea, % (percentage of subjects experiencing at least one event): 48.0%
  Nausea, E (number of events): 94
[5]
  Nausea, Ne (number of subjects experiencing at least one event): 49
  Gastrointestinal adverse events, Observed data, Ne (number of subjects experiencing at least one event): 84
